Source: patent publication US9040713B2, “Methods of managing blood sugar levels and compositions related thereto” (EMORY UNIVERSITY, priority 2010, dated 2015)

Legend:
GST-IRTK = molecular target: T1, GST-IRTK (Homo sapiens, UniProt P06213); test: Partial proteolysis; format: binding; details: compound 50 μM or ATP-γ-S 5 μM; limited trypsin (or chymotrypsin) digestion
T1 construct: GST-tagged IRTK (GST-IRTK, a.a. 1011-1382); purchased Invitrogen
Procedure: 200 ng GST-IRTK was subjected to limited trypsin digestion in the presence or absence of 50 μM compound with 50 mM tris-HCL (pH8.2) and 20 mM CacCl2. The sample was separated on a SDS-polyacrylamide gel and stained by silver.
Several small molecules bind to the intracellular kinase domain of IR (IRTK) and provoke its activation. DDN might also interact with the IRTK to activate IR. To test this possibility, an UV-absorption spectra analysis was performed using recombinant IRTK. While the GST-tagged IRTK (GST-IRTK, a.a. 1011-1382) had no absorption from 200 nm to 800 nm, addition of DDN, but not its structural related analogue naptho[2,3-d]thiazole-4,9-dione-2-[(4-chlorophenyl)amino] […] Partial proteolysis analysis was also performed to confirm the DDN/IRTK interaction. Recombinant GST-tagged IRTK was incubated with either DMSO or DDN, followed by limited trypsin digestions. In DMSO treatment, GST-IRTK was digested into several smaller fragments of various molecular weights. […] Whereas a band of ˜37 kDa presented strongly in the ATP-γ-S incubated IRTK, a band of ˜30 kDa was found in the control samples but attenuated in the ATP-γ-S-treated sample.
To evaluate if 4524-E7 directly binds to the IR kinase domain, a partial proteolysis assay was performed with recombinant IRTK domain using trypsin or chymotrypsin, which was used before to characterize the interaction between IR and its small molecular ligand DAQ B1. Recombinant GST-tagged IRTK with either DMSO, 50 μM 4524-E7 or ATP-γ-S, were incubated and followed by limited trypsin or chymotrypsin digestion. Under DMSO treatment, GST-IRTK was quickly digested by both trypsin and chymotrypsin into several small fragments with various molecular weights (FIG. 10B). […] To test whether 4524-E7 selectively elevates IR kinase activities, an in vitro IR, IGFR, and EGFR kinase assays were performed using histone as the substrate.

IGF-1R = IGF-1R phosphorylation in cells (immunoblotting); format: cell-based
Procedure: (A) DDN and CSN activate IR and its downstream signaling in CHO-IR cells. […] The cell lysates were analyzed by immunoblotting with anti-phospho-IR antibodies, or immunoprecipitated by PY20 and analyzed using anti-IR and anti-IRS-1, respectively. (B) DDN and CSN induce IR phosphorylation in a dose-dependent manner. CHO-IR cells were treated with the small compounds at different concentrations for 15 min, and the IR phosphorylation was monitored by immunoprecipitation and immunoblotting. (C) DDN, CSN induce IR phosphorylation in a time-dependent manner. […] (D) DDN and CSN induce IR phosphorylation and its downstream signaling in a dose-dependent manner. […] (E) DDN and CSN cannot induce IGF-1R or EGFR phosphorylation. CHO-IGF-1R or HEK293 cells were treated with EGF (100 nM), IGF-1 (100 nM), DDN (10 μM) or CSN (10 μM) for 15 min. The cell lysates were analyzed by immunoblotting with anti-pIGF-1R and anti-pEGFR.
(A) Chemical structure of 4524-E7. (B) Effect of 4524-E7 and other 1,4-naphthoquinone derivatives on IR phosphorylation in CHO-IR cells. CHO-IR cells were cultured in 96-well plates and treated with 5 μM compounds for 15 min at 37 C. Cells were lysed, and IR phosphorylations were tested by ELISA. The IR phosphorylation activities of the tested compounds were expressed as a percentage of the vehicle. (C) 4524-E7 and 1,4-naphthoquinone derivates activate IR and its downstream signaling in CHO-IR cells. […] The cell lysates were analyzed by immunoblotting with various indicated antibodies. The phosphorylated IR was immunoprecipitated using PY20 and analyzed by immunoblotting with anti-IR13 antibody. […] The phosphorylation of each receptor was determined by Western blot using specific antibodies as indicated. (E) 4524-E7 activates IR through its ICD. Upper panel: Diagram of chimaeric receptors. Lower panel: His-tagged wild-type IR, IGFR-IR, IR-IGFR, and IR-EGFR constructs were transfected into CHO cells followed vehicle or 5 μM 4524-E7 treatment for 30 min. Then the cells were lysated and the transfected receptor fused to His tag were pulled down with Ni+ beads, followed by western blot against anti-p-Tyr and anti-His. The cell lysates were tested with anti-p-Akt and anti-Akt.
A cell-based ELISA assay was developed with an IR stably transfected Chinese Hamster Ovary (CHO-IR) cell line. The cells were seeded in a 96-well plate and treated with 10 μM (15 min) compounds. The cell lysates were subjected to the sandwich ELISA using immobilized anti-phosphotyrosine antibody and anti-IR antibody. […] Among the positive hits, 1,4-naphthoquinone compounds were identified that can selectively activate IR but not IGF-1R (FIG. 1A). […] Total IR tyrosine phosphorylation was further confirmed by immunoprecipitation using anti-phosphotyrosine (PY20) antibody (FIG. 2A, 3rd panel). […]

T1 sequence (P06213 1011-1382): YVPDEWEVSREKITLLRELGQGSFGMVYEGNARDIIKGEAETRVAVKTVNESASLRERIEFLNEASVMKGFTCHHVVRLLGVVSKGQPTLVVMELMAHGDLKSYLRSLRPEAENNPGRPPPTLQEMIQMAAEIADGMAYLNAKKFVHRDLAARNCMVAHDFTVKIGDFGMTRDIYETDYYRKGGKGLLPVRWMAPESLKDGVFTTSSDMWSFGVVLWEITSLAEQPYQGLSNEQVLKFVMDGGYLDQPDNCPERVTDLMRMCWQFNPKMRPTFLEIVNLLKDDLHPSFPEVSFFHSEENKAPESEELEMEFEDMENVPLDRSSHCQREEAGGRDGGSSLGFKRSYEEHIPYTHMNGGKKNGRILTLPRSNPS

Row | SMILES | protection of IRTK from proteolysis (GST-IRTK) | IGF-1R activation (IGF-1R; IGF-1R-transfected HEK293 cells, 5 μM) | IGF-1R activation (IGF-1R; differentiated 3T3-L1 adipocytes) | IGF-1R activation (IGF-1R; CHO-IGF-1R cells, 10 μM, 15 min)
1 | O=C1c2ccccc2C(=O)C2SC(Nc3ccc(Cl)cc3)=NC12 (centres unmarked) [4524-E7, 2-((4-chlorophenyl)amino)naphtho[2,3-d]thiazole-4,9(3aH,9aH)-dione] | more intact IRTK was observed | not any other RTKs | neither IGF-1R nor EGFR was activated | –
2 | CC(=O)Oc1ccc(OC(C)=O)c2c1C(=O)C(Cl)=C(Cl)C2=O [DDN, 5,8-diacetyloxy-2,3-dichloro-1,4-naphthoquinone] | protected IRTK against trypsin digestion | – | – | Neither IGF-1R nor EGFR was activated
